We go through 5 molecules from publication PMC10609741 (Pharmaceutics, 2023).

Values after ≈ are worked out from the molar mass of the structure shown.

Data set [1] concerns Swiss albino mice. In words: Hot-plate test. It is filed as in vivo. The note with it: oral gavage; for pain inhibition: after 4 h. The procedure:
(§1) The tests were performed using Swiss albino mice (25–30 g) which were divided in groups of eight mice each.
A hot-plate test was performed using a hot plate apparatus (DS 37; UgoBasile). The plate was set at 55 ± 0.1 °C and the response latency was noted as the interval between placing the animal on the plate and the occurrence of licking, shaking of the hind paws, or jumping off the surface. The latency of the analgesic response was measured at onset and at 1, 2, 3, and 4 h. The experiment cut-off time was set to 15 s to prevent tissue damage. For each group, the mean value (±S.E.) was reported.
On the technique in general: In hot-plate and tail-flick tests a longer latency is read as antinociception.

Data set [2] in a line: Solubility of the ibuprofen derivative in water in the absence of β-CD (S0), UV 226 nm. Type of data set: physicochemical. The following applies: water without β-CD, 25 °C, from calibration curves. The procedure: (§2) Stock solutions of β-CD were prepared in the concentration range of 0–15 mmol/L. From each stock solution 1 mL was taken and introduced into thermomixer flasks and 1 mL of suprasaturated solution of 4b, 4g, 4k, 4m was added and stirred at 600 rpm at 25 °C for 24 h, then at 60 °C for 24 h, and finally left to rest, at 25 °C, for another 24 h. UV absorbance was monitored within 190–320 nm on extracts freshly diluted with deionized water, and the maximum wavelength of 226 nm was selected for solubility determinations. All measurements were made in triplicate.

Data set [3] deals with Swiss albino mice. In words: Tail-flick test. The following applies: oral gavage. It is filed as in vivo. As for the experimental part:
as §1
The tail-flick test measures the reflex latency after exposure to a heating source, in order to evaluate the spinal response to pain. The tail flick unit (37360; UgoBasile, Gemonio, Italy) directs heat and stimulates the distal part of the mouse tail. The tail-flick latency is defined as the period before the mouse removed its tail from heat stimuli. The pain response at onset and at 1, 2, 3, and 4 h after administration of drugs, was noted. To prevent tissue lesions, the experiment cut-off time was set at 12 s. The pain inhibition (%) was calculated for each tested compound/β-CD complex and for each group the mean value (±S.E.) was reported.

Data set [4] can be described thus: Phase solubility study with β-CD (apparent solubility constant K1:1). Type of data set: physicochemical. The note with it: 1:1 complex, K1:1 = Slope/S0(1−Slope); β-CD 0–15 mmol/L. The procedure:
as §2

The subject of data set [5] is Swiss albino mice. Put plainly: Acetic acid writhing test. It is filed as in vivo. The following applies: acetic acid 1% i.p. 4 h after oral administration, writhes counted over 30 min. As for the experimental part: as §1
To determine visceral pain, a writhing test was used. […] The mice were placed in a large glass cylinder and the number of abdominal writhes was recorded over a period of 30 min. The inhibition (%) of writhings was calculated to ascertain the analgesic effect. For each group, the mean value (±S.E.) was reported.
Background: Writhing tests count abdominal constrictions after an irritant is injected.

Data set [6] relates to Swiss albino mice. In words: Paw formalin test. It is filed as in vivo. The note with it: formalin 5% 4 h after oral administration. The procedure:
as §1
The analgesic and anti-inflammatory effects of the compounds were evaluated using formalin assay. […] The time (s) that the mice spent licking and/or biting the injected paw was recorded. Depending on the time value, the pain can be classified as neurogenic pain (0 to 5 min), interphase pain (5 to 15 min), and inflammatory pain (15 to 30 min). For each group, the mean value (±S.E.) was reported.

The mark [7] stands for this setting: 1/20 of LD50, maximum after 2 h.

With `CC(C)Cc1ccc(C(C)C(=O)NN2C(=O)CSC2c2ccc(C#N)cc2)cc1` (centres unmarked) [4k], the pain inhibition in data set [1] is reported as 63.03%. Further, the solubility in data set [2] was found to be 22.8 µg/mL (≈ 55.9 µM). In data set [3] (1/20 of LD50, maximum at 3 h), the “pain inhibition, maximum effect” value is 32.01%. Further, the “apparent solubility constant (K1:1) in the presence of β-CD” value (shortened to “apparent solubility constant”) in data set [4] came out at 713.6510 mol⁻¹. In data set [5], this molecule came in with an inhibition of writhings of 58.60%.
As to `CC(C)Cc1ccc(C(C)C(=O)NN2C(=O)CSC2c2ccc([N+](=O)[O-])cc2)cc1` (centres unmarked) [4g], the concentration in solution in data set [2] (solubility) came to 15 µg/mL (≈ 35.1 µM). Besides, the “pain inhibition, maximum effect” value in data set [3] (setting [7]) is reported as 24.90%. Also, the “apparent solubility constant” value in data set [4] turned out to be 723.50 mol⁻¹.
Regarding `CC(C)Cc1ccc(C(C)C(=O)[O-])cc1.[Na+]` (centres unmarked) [Ibu-Na, Ibuprofen sodium, reference compound], the “time mice spent licking the formalin-injected paw, first phase” value in data set [6] (first phase 0–5 min, neurogenic pain) was found to be 59.50 s. Also, the “time mice spent licking the formalin-injected paw, second phase” value in data set [6] (second phase 15–30 min, inflammatory pain) amounted to 32 s. This molecule registered a pain inhibition in data set [1] of 47.22%. The “pain inhibition, maximum effect” value in data set [3] (1/20 of LD50, maximum at 3 h) was 45.86%. Moreover, the inhibition of writhings in data set [5] worked out at 55.65%.
With `CC(C)Cc1ccc(C(C)C(=O)NN2C(=O)CSC2c2ccc(N)cc2)cc1` (centres unmarked) [4m], the “time of maximum analgesic effect” value in data set [1] (1/20 of LD50) was 3 h. Besides, the solubility in data set [2] was determined as 38.1 µg/mL (≈ 95.9 µM). Besides, in data set [3] (1/20 of LD50, maximum at 3 h), the “pain inhibition, maximum effect” value worked out at 44.19%.
Turning to `CC(C)Cc1ccc(C(C)C(=O)NN2C(=O)CSC2c2ccc(Cl)cc2)cc1` (centres unmarked) [4b], the pain inhibition in data set [1] amounted to 58.93%. This molecule displayed a solubility in data set [2] of 9.21 µg/mL (≈ 22.1 µM). Further, in data set [3] (setting [7]), the “pain inhibition, maximum effect” value turned out to be 25.54%. Moreover, the “apparent solubility constant” value in data set [4] stood at 771.81 mol⁻¹.

One may read the solubility as the dissolved amount per volume that the medium holds.
